Converted amounts (≈) assume the structure as drawn.
System: Staphylococcus aureus
Assay: Antibacterial activity against wild type methicillin-sensitive Staphylococcus aureus ATCC 29213 assessed as inhibition of bacterial growth incubated for 18 to 24 hrs by broth microdilution method
Type: functional
Settings: time 18-24 hrs

Row | MIC | SMILES
1 | 3.12 µg/mL (≈ 9.44 µM) | CCCn1c(=O)c(C(=O)Nc2nncs2)c(O)c2ccccc21
2 | 1.56 µg/mL (≈ 4.93 µM) | CCn1c(=O)c(C(=O)Nc2nncs2)c(O)c2ccccc21
3 | 6.25 µg/mL (≈ 15.2 µM) | CCn1c(=O)c(C(=O)Nc2nnc(-c3cccc(F)c3)s2)c(O)c2ccccc21

Row | SMILES | MIC
4 | CCn1c(=O)c(C(=O)Nc2nnc(-c3ccccc3)s2)c(O)c2ccccc21 | 0.39 µg/mL (≈ 0.994 µM)

System: Staphylococcus aureus
Assay: Antibacterial activity against methicillin-resistant Staphylococcus aureus clinical isolate 15-1 assessed as inhibition of bacterial growth incubated for 18 to 24 hrs by broth microdilution method
Type: functional
Settings: time 18-24 hrs

Row | SMILES | MIC
5 | CCn1c(=O)c(C(=O)Nc2nnc(-c3ccccc3)s2)c(O)c2ccccc21 | 2 µg/mL (≈ 5.1 µM)

System: Staphylococcus aureus
Assay: Antibacterial activity against methicillin-resistant Staphylococcus aureus clinical isolate 15-2 assessed as inhibition of bacterial growth incubated for 18 to 24 hrs by broth microdilution method
Type: functional
Settings: time 18-24 hrs

Row | SMILES | MIC
6 | CCn1c(=O)c(C(=O)Nc2nnc(-c3ccccc3)s2)c(O)c2ccccc21 | 2 µg/mL (≈ 5.1 µM)

System: Staphylococcus aureus
Assay: Antibacterial activity against methicillin-resistant Staphylococcus aureus clinical isolate 15-3 assessed as inhibition of bacterial growth incubated for 18 to 24 hrs by broth microdilution method
Type: functional
Settings: time 18-24 hrs

Row | SMILES | MIC
7 | CCn1c(=O)c(C(=O)Nc2nnc(-c3ccccc3)s2)c(O)c2ccccc21 | 1 µg/mL (≈ 2.55 µM)

System: Staphylococcus aureus
Assay: Antibacterial activity against methicillin-resistant Staphylococcus aureus clinical isolate 15-6 assessed as inhibition of bacterial growth incubated for 18 to 24 hrs by broth microdilution method
Type: functional
Settings: time 18-24 hrs

Row | SMILES | MIC
8 | CCn1c(=O)c(C(=O)Nc2nnc(-c3ccccc3)s2)c(O)c2ccccc21 | 0.5 µg/mL (≈ 1.27 µM)

System: Staphylococcus aureus
Assay: Antibacterial activity against methicillin-resistant Staphylococcus aureus clinical isolate 15-7 assessed as inhibition of bacterial growth incubated for 18 to 24 hrs by broth microdilution method
Type: functional
Settings: time 18-24 hrs

Row | SMILES | MIC
9 | CCn1c(=O)c(C(=O)Nc2nnc(-c3ccccc3)s2)c(O)c2ccccc21 | 1 µg/mL (≈ 2.55 µM)

System: Staphylococcus aureus
Assay: Antibacterial activity against methicillin-resistant Staphylococcus aureus clinical isolate 15-8 assessed as inhibition of bacterial growth incubated for 18 to 24 hrs by broth microdilution method
Type: functional
Settings: time 18-24 hrs

Row | SMILES | MIC
10 | CCn1c(=O)c(C(=O)Nc2nnc(-c3ccccc3)s2)c(O)c2ccccc21 | 0.5 µg/mL (≈ 1.27 µM)

System: Staphylococcus aureus
Assay: Antibacterial activity against methicillin-resistant Staphylococcus aureus clinical isolate 15-9 assessed as inhibition of bacterial growth incubated for 18 to 24 hrs by broth microdilution method
Type: functional
Settings: time 18-24 hrs

Row | SMILES | MIC
11 | CCn1c(=O)c(C(=O)Nc2nnc(-c3ccccc3)s2)c(O)c2ccccc21 | 0.25 µg/mL (≈ 0.637 µM)

System: Staphylococcus aureus
Assay: Antibacterial activity against methicillin resistant and vancomycin-intermediate sensitive Staphylococcus aureus ATCC 700699 assessed as inhibition of bacterial growth incubated for 18 to 24 hrs by broth microdilution method
Type: functional
Settings: time 18-24 hrs

Row | SMILES | MIC
12 | CCn1c(=O)c(C(=O)Nc2nnc(-c3ccccc3)s2)c(O)c2ccccc21 | 2 µg/mL (≈ 5.1 µM)

System: Staphylococcus aureus
Assay: Antibacterial activity against methicillin resistant and vancomycin-intermediate sensitive Staphylococcus aureus ATCC 700788 assessed as inhibition of bacterial growth incubated for 18 to 24 hrs by broth microdilution method
Type: functional
Settings: time 18-24 hrs

Row | SMILES | MIC
13 | CCn1c(=O)c(C(=O)Nc2nnc(-c3ccccc3)s2)c(O)c2ccccc21 | 2 µg/mL (≈ 5.1 µM)

System: Staphylococcus epidermidis
Assay: Antibacterial activity against methicillin-sensitive Staphylococcus epidermidis clinical isolate 15-3 assessed as inhibition of bacterial growth incubated for 18 to 24 hrs by broth microdilution method
Type: functional
Settings: time 18-24 hrs

Row | SMILES | MIC
14 | CCn1c(=O)c(C(=O)Nc2nnc(-c3ccccc3)s2)c(O)c2ccccc21 | 1 µg/mL (≈ 2.55 µM)

System: Staphylococcus epidermidis
Assay: Antibacterial activity against methicillin-sensitive Staphylococcus epidermidis clinical isolate 15-4 assessed as inhibition of bacterial growth incubated for 18 to 24 hrs by broth microdilution method
Type: functional
Settings: time 18-24 hrs

Row | SMILES | MIC
15 | CCn1c(=O)c(C(=O)Nc2nnc(-c3ccccc3)s2)c(O)c2ccccc21 | 1 µg/mL (≈ 2.55 µM)

System: Staphylococcus epidermidis
Assay: Antibacterial activity against methicillin-resistant Staphylococcus epidermidis clinical isolate 15-1 assessed as inhibition of bacterial growth incubated for 18 to 24 hrs by broth microdilution method
Type: functional
Settings: time 18-24 hrs

Row | SMILES | MIC
16 | CCn1c(=O)c(C(=O)Nc2nnc(-c3ccccc3)s2)c(O)c2ccccc21 | 1 µg/mL (≈ 2.55 µM)

System: Staphylococcus epidermidis
Assay: Antibacterial activity against methicillin-resistant Staphylococcus epidermidis clinical isolate 15-2 assessed as inhibition of bacterial growth incubated for 18 to 24 hrs by broth microdilution method
Type: functional
Settings: time 18-24 hrs

Row | SMILES | MIC
17 | CCn1c(=O)c(C(=O)Nc2nnc(-c3ccccc3)s2)c(O)c2ccccc21 | 1 µg/mL (≈ 2.55 µM)

System: Staphylococcus epidermidis
Assay: Antibacterial activity against methicillin-resistant Staphylococcus epidermidis clinical isolate 15-3 assessed as inhibition of bacterial growth incubated for 18 to 24 hrs by broth microdilution method
Type: functional
Settings: time 18-24 hrs

Row | SMILES | MIC
18 | CCn1c(=O)c(C(=O)Nc2nnc(-c3ccccc3)s2)c(O)c2ccccc21 | 1 µg/mL (≈ 2.55 µM)

System: Enterococcus faecalis
Assay: Antibacterial activity against Enterococcus faecalis clinical isolate 15-1 assessed as inhibition of bacterial growth incubated for 18 to 24 hrs by broth microdilution method
Type: functional
Settings: time 18-24 hrs

Row | SMILES | MIC
19 | CCn1c(=O)c(C(=O)Nc2nnc(-c3ccccc3)s2)c(O)c2ccccc21 | 1 µg/mL (≈ 2.55 µM)

System: Enterococcus faecalis
Assay: Antibacterial activity against Enterococcus faecalis clinical isolate 15-2 assessed as inhibition of bacterial growth incubated for 18 to 24 hrs by broth microdilution method
Type: functional
Settings: time 18-24 hrs

Row | SMILES | MIC
20 | CCn1c(=O)c(C(=O)Nc2nnc(-c3ccccc3)s2)c(O)c2ccccc21 | 1 µg/mL (≈ 2.55 µM)

System: Enterococcus faecium
Assay: Antibacterial activity against Enterococcus faecium clinical isolate 15-1 assessed as inhibition of bacterial growth incubated for 18 to 24 hrs by broth microdilution method
Type: functional
Settings: time 18-24 hrs

Row | SMILES | MIC
21 | CCn1c(=O)c(C(=O)Nc2nnc(-c3ccccc3)s2)c(O)c2ccccc21 | 1 µg/mL (≈ 2.55 µM)

System: Enterococcus faecium
Assay: Antibacterial activity against Enterococcus faecium clinical isolate 15-2 assessed as inhibition of bacterial growth incubated for 18 to 24 hrs by broth microdilution method
Type: functional
Settings: time 18-24 hrs

Row | SMILES | MIC
22 | CCn1c(=O)c(C(=O)Nc2nnc(-c3ccccc3)s2)c(O)c2ccccc21 | 2 µg/mL (≈ 5.1 µM)

System: Enterococcus faecalis
Assay: Antibacterial activity against vancomycin-resistant Enterococcus faecalis ATCC 51299 assessed as inhibition of bacterial growth incubated for 18 to 24 hrs by broth microdilution method
Type: functional
Settings: time 18-24 hrs

Row | SMILES | MIC
23 | CCn1c(=O)c(C(=O)Nc2nnc(-c3ccccc3)s2)c(O)c2ccccc21 | 1 µg/mL (≈ 2.55 µM)

System: Enterococcus faecalis
Assay: Antibacterial activity against vancomycin-resistant Enterococcus faecalis ATCC 700802 assessed as inhibition of bacterial growth incubated for 18 to 24 hrs by broth microdilution method
Type: functional
Settings: time 18-24 hrs

Row | SMILES | MIC
24 | CCn1c(=O)c(C(=O)Nc2nnc(-c3ccccc3)s2)c(O)c2ccccc21 | 1 µg/mL (≈ 2.55 µM)

System: Enterococcus faecalis
Assay: Antibacterial activity against vancomycin-resistant Enterococcus faecalis ATCC 51575 assessed as inhibition of bacterial growth incubated for 18 to 24 hrs by broth microdilution method
Type: functional
Settings: time 18-24 hrs

Row | SMILES | MIC
25 | CCn1c(=O)c(C(=O)Nc2nnc(-c3ccccc3)s2)c(O)c2ccccc21 | 1 µg/mL (≈ 2.55 µM)

System: not listed separately
Assay: Inhibition of Staphylococcus aureus Gyrase B using linear pBR322 DNA as substrate incubated for 30 mins in presence of ATP by ADP-Glo assay
Settings: not given

Row | IC50 | SMILES
26 | 460 nM | CCCn1c(=O)c(C(=O)Nc2nncs2)c(O)c2ccccc21
27 | 110 nM | CCn1c(=O)c(C(=O)Nc2nncs2)c(O)c2ccccc21
28 | 1810 nM | CCn1c(=O)c(C(=O)Nc2nnc(-c3cccc(F)c3)s2)c(O)c2ccccc21

Row | SMILES | IC50
29 | CCn1c(=O)c(C(=O)Nc2nnc(-c3ccccc3)s2)c(O)c2ccccc21 | 1720 nM

Reference: ChEMBL document CHEMBL4680144, “N-thiadiazole-4-hydroxy-2-quinolone-3-carboxamides bearing heteroaromatic rings as novel antibacterial agents: Design, synthesis, biological evaluation and target identification” (Eur J Med Chem, 2020)
